Measured values reported in patent publication US20020026051A1, “Dithiepino [6,5-b]pyridines, and related compositions and methods” (priority 1999, published 2002).

Assays:
calcium channel = target: T1, calcium channel (Oryctolagus cuniculus, UniProt P15381); experiment: Assay for Inhibition of Nitrendipine Binding (3H-nitrendipine, heart membranes); details: 3H-nitrendipine displacement, rabbit heart membranes
T1 construct: from tissue; host or cells: rabbit heart membrane preparation
Summary of the method: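 Rabbit heart membranes incubated with 3H-nitrendipine (0.05-0.50 nM) and test compound in 0.05M Hepes pH 7.4 for 90 minutes at 4° C, then filtered and scintillation counted.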

trachealis muscle tissue = experiment: Test for Inhibition of Calcium-Dependent Smooth Muscle Contraction (trachea); format: cell-based; details: Canis lupus familiaris; dog tracheal rings, 50 mM KCl contraction
Description: The trachea and the aorta from dogs sacrificed by excess KCl injection are stored overnight at 4° C. in oxygenated Krebs-Henseleit buffer. Tracheal rings, one cartilage segment wide (5-10 mm), are cut starting from the bronchial end. Rings of aorta tissue of the same width are also prepared. After cutting the cartilage, the trachealis muscle tissue and the aorta tissue are suspended in oxygenated Krebs-Henseleit buffer at 37° C. in a 25 ml tissue bath. After a 60-minute equilibration period, the tissues are challenged with 10 μM carbachol. After 5 minutes, the tissues are rinsed and allowed to rest 50 minutes. The tissues are then challenged with 50 mM KCl and, after 30 minutes, the contractions are quantitated. The tissues are then rinsed and re-equilibrated for 50 minutes. Test compounds are then added for 10 minutes, and the tissue is rechallenged with 50 mM KCl. After 30 minutes, the contraction is recorded. A percent inhibition of smooth muscle contraction can then be calculated.

T1 sequence (P15381 whole entry, other chains not shown): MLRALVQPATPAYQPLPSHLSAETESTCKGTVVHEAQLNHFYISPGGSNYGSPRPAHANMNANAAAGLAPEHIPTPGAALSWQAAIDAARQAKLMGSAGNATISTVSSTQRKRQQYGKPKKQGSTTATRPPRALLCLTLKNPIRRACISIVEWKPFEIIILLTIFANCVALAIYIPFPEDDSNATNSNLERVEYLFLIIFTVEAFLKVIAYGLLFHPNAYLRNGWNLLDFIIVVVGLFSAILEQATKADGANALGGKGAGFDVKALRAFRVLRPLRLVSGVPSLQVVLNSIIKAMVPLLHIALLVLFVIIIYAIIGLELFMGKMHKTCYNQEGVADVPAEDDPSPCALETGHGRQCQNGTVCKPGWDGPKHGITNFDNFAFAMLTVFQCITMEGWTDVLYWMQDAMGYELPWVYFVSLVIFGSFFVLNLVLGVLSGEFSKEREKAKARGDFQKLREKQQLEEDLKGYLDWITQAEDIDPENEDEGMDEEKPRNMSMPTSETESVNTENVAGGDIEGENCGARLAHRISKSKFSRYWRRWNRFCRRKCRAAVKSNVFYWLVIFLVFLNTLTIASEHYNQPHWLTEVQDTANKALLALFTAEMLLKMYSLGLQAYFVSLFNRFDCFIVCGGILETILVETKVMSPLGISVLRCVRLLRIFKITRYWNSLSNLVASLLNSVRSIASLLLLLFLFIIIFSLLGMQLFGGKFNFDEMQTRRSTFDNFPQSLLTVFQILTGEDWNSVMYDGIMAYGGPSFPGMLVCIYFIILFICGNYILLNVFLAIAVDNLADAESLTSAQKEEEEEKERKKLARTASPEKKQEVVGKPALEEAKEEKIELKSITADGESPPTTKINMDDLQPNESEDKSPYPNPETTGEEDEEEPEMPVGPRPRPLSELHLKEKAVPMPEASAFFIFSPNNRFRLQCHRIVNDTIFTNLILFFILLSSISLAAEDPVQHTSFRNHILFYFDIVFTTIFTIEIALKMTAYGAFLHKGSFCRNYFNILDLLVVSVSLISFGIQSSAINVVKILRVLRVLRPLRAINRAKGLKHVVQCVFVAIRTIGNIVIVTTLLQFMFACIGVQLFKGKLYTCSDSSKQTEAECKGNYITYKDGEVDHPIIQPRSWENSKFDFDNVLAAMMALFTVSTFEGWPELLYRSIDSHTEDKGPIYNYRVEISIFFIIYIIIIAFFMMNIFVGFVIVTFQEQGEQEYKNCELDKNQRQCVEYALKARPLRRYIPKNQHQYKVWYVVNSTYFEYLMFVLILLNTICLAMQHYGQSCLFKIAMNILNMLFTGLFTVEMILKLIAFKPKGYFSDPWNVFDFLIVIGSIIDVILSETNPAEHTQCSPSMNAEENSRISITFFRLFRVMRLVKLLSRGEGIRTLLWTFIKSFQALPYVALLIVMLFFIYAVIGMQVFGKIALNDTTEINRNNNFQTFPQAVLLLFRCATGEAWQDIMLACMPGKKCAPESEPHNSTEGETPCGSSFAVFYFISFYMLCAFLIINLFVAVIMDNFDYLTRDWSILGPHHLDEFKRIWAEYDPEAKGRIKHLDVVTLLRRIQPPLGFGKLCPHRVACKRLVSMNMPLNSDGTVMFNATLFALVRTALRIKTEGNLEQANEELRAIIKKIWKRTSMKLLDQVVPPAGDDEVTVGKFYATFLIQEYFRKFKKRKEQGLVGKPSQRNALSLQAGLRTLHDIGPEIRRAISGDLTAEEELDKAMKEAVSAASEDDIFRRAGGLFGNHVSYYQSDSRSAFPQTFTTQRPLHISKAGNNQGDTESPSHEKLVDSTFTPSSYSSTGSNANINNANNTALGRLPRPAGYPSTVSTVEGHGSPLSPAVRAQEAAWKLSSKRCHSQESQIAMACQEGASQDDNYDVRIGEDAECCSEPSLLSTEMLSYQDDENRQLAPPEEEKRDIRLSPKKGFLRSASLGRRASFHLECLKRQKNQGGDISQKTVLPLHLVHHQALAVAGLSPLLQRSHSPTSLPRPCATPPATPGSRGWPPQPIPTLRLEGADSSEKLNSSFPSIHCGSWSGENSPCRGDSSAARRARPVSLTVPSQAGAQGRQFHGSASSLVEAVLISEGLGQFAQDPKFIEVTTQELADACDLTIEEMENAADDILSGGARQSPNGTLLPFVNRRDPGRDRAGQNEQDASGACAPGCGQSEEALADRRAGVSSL
T1 sequence (P13806 27-960 partner limits assumed, other chains not shown): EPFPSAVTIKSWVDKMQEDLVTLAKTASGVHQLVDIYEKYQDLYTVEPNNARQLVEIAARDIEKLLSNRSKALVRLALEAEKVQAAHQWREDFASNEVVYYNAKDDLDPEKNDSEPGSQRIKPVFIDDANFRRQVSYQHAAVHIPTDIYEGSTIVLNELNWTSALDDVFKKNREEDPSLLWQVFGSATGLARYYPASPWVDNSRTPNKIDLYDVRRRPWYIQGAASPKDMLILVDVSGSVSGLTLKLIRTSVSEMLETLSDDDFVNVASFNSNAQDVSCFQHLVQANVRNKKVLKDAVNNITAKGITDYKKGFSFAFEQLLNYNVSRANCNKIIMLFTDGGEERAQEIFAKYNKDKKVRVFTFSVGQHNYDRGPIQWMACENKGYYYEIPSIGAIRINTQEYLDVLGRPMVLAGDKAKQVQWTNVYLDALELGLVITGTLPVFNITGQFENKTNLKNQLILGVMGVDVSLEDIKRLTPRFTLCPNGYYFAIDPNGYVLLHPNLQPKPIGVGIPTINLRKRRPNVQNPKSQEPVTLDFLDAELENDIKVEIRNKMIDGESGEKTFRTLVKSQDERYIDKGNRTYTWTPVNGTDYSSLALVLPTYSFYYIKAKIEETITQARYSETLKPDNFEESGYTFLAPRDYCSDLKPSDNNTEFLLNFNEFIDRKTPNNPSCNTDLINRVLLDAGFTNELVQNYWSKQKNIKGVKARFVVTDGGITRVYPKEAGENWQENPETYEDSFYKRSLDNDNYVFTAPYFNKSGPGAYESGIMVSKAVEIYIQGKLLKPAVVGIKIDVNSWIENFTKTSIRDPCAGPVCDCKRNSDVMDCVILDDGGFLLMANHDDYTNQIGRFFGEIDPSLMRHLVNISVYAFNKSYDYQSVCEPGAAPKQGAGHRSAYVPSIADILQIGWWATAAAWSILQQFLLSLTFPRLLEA
T1 sequence (P13806 961-1106 partner limits assumed, other chains not shown): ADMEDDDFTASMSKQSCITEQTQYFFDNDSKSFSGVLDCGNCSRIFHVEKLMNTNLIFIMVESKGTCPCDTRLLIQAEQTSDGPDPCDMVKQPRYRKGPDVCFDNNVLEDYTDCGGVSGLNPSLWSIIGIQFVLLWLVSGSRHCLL

Row | IC50 (calcium channel; Tables 1-5) | IC50 (trachealis muscle tissue) | IC50 (calcium channel; Tables 6-7) | SMILES
1 | 43 nM | 660 nM | – | CC1=C(C(=O)OCCN(C)Cc2ccccc2)[C@@H](c2c(F)cccc2Cl)C2=C(CS(=O)(=O)CCS2(=O)=O)N1 (single isomer, unassigned) [Compound 2, 5H-1,4-Dithiepino[6,5-b]pyridine-8-carboxylic acid, 9-(2-chloro-6-fluorophenyl)-2,3,6,9-tetrahydro-7-methyl-2-[methyl(phenylmethyl)amino]ethyl ester 1,1,4,4-tetraoxide]
2 | 74 nM | 650 nM | – | CC1=C(C(=O)OCCN(C)Cc2ccccc2)C(c2c(F)cccc2Cl)C2=C(CS(=O)(=O)CCS2(=O)=O)N1 (stereo not shown) [Compound 1, 5H-1,4-Dithiepino[6,5-b]pyridine-8-carboxylic acid, 9-(2-chloro-6-fluorophenyl)-2,3,6,9-tetrahydro-7-methyl-2-[methyl(phenylmethyl)amino]ethyl ester 1,1,4,4-tetraoxide]
3 | 49 nM | 6200 nM | – | CC1=C(C(=O)OCCN(C)Cc2ccccc2)C(c2c(F)c(F)c(F)c(F)c2F)C2=C(CS(=O)(=O)CCCS2(=O)=O)N1 (stereo not shown) [Compound 27, 2H,6H-1,5-Dithiocino[3,2-b]pyridine-9-carboxylic acid, 3,4,7,10-tetrahydro-8-methyl-10-(pentafluorophenyl)-2-[methyl(phenylmethyl)amino]ethyl ester 1,1,5,5-tetraoxide]
4 | – | – | 40 nM | CC1=C(C(=O)OCCOC(=O)c2ccc(OC(C)C)cc2)C(c2c(F)cccc2Cl)C2=C(CS(=O)(=O)CCCS2(=O)=O)N1 (stereo not shown) [Compound 99, 2H,6H-[1,5]dithiocino[3,2-b]pyridine-9-carboxylic acid, 10-(2-chloro-6-fluorophenyl)-3,4,7,10-tetrahydro-8-methyl-, 2-[[4-(1-methylethoxy)benzoyl]oxy]ethyl ester, 1,1,5,5-tetraoxide]
